20 molecules from patent publication US10030027B2, “Soluble guanylate cyclase stimulators” (MERCK SHARP & DOHME CORP., priority 2015, dated 2018) can be followed below.

What is called Ki is a dissociation constant, usually derived from enzyme kinetics or from competition with a known ligand.

Experiment [1] has as its target human recombinant sGC enzyme (Homo sapiens (Human), UniProt Q02108+Q02153). Put plainly: Size Exclusion Chromatography (SEC) competition binding assay using [3H] Ex-77B as the radioligand. The conditions noted are these: [3H] Ex-77B radioligand, 24 hours at 37° C. The gist of the method: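 Recombinant human sGC binding measured by competition against tritiated Ex-77B radioligand, with non-specific binding defined by 1 μM unlabeled Ex-77B.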

The target in the next experiment is sGC α1/β1 heterodimer (Homo sapiens (Human), UniProt Q02108+Q02153). Kind of experiment: Cell-based sGC functional assay (cyclic GMP assay for sGC activator: CASA assay). Details: % Activation: concentration or dose not given beside the values. The conditions noted are these: CHO-K1/sGC cells; for Emax: CHO-K1, activity expressed as percentage of compound A (standard), read-out: % Activation; for EC50: inflection point, 4P fit, read-out: IP. The gist of the method:
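CHO-K1 cells stably expressing human sGC α1/β1 were pre-incubated 30 min at 25° C with or without 1 μM DETA-NO, then exposed to compound for 1 hr at 37° C with 0.5 mM IBMX and 2.5% DMSO final. Intracellular cGMP was measured by HTRF, expressed as % of reference sGC-HDA maximum; inflection point and maximum fold induction came from 4-parameter fits.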

As to `Cc1cccc(Cn2nc(-c3nc(N)c4c(n3)NC(=O)[C@@]4(C)c3ccc(CCC(=O)O)cc3)c3ccccc32)c1` [Example 225B, (S)-3-(4-{4-amino-5-methyl-2-[1-(3-methylbenzyl)-1H-indazol-3-yl]-6-oxo-6,7-dihydro-5H-pyrrolo[2,3-d]pyrimidin-5-yl}phenyl)propanoic acid], in experiment [1], the Ki is 0.342 nM. Further, at sGC α1/β1 heterodimer, the Emax was 140% and the EC50 was 460 nM.
In the same order, the values of `C[C@@]1(c2ccc(CCC(=O)O)cc2)C(=O)Nc2nc(-c3nn(Cc4ncccc4F)c4cc(Cl)ccc34)nc(N)c21` (single isomer, unassigned) [Example 57B] are 0.096 nM, 104% and 1080 nM.
In the same order, the values of `CC(C)(CCc1coc(C2(C)C(=O)Nc3nc(-c4nn(Cc5ncccc5F)c5cc(Cl)ccc45)nc(N)c32)n1)C(=O)O` (stereo not drawn) [Example 207B, 4-{2-[4-amino-2-{6-chloro-1-[(3-fluoropyridin-2-yl)methyl]-1H-indazol-3-yl}-5-methyl-6-oxo-6,7-dihydro-5H-pyrrolo[2,3-d]pyrimidin-5-yl]-1,3-oxazol-4-yl}-2,2-dimethyl-butanoic acid] are 0.095 nM, 100% and 1760 nM.
The corresponding values for `CC(C)(Cc1csc([C@]2(C)C(=O)Nc3nc(-c4nn(Cc5ccccc5F)c5ncccc45)nc(N)c32)n1)c1nn[nH]n1` [Example 241A, (S)-4-amino-2-[1-(2-fluoro-benzyl)-1H-pyrazolo[3,4-b]pyridin-3-yl]-5-methyl-5-{4-[2-methyl-2-(2H-tetrazol-5-yl)propyl]-1,3-thiazol-2-yl}-5,7-dihydro-6H-pyrrolo[2,3-d] pyrimidin-6-one] are 0.121 nM, 94.8% and 403 nM.
Regarding `CC1(c2cccc(-c3nn[nH]n3)c2)C(=O)Nc2nc(-c3nn(CCC(F)(F)C(F)(F)F)c4ncccc34)nc(N)c21` (single isomer, unassigned) [Example 252B, 4-amino-5-methyl-2-[1-(3,3,4,4,4-pentafluorobutyl)-1H-pyrazolo[3,4-b]pyridin-3-yl]-5-[3-(2H-tetrazol-5-yl)phenyl]-5,7-dihydro-6H-pyrrolo[2,3-d] pyrimidin-6-one], the Ki in experiment [1] came to 0.292 nM. In addition, the EC50 at sGC α1/β1 heterodimer is 2460 nM.
For the molecule `CC(C)(Cc1csc([C@]2(C)C(=O)Nc3nc(-c4nn(Cc5cccc(F)c5F)c5cc(Cl)ccc45)nc(N)c32)n1)C(=O)O` [Example 181A, (S)-3-(2-{4-amino-2-[6-chloro-1-(2,3-difluorobenzyl)-1H-indazol-3-yl]-5-methyl-6-oxo-6,7-dihydro-5H-pyrrolo[2,3-d]pyrimidin-5-yl}-1,3-thiazol-4-yl)-2,2-dimethyl-propanoic acid], the Ki in experiment [1] was 0.094 nM. On sGC α1/β1 heterodimer, the Emax was 112% and the EC50 was determined as 278 nM.
On to `CC(Cc1ccc(C2(C)C(=O)Nc3nc(-c4nn(CCCC(F)(F)F)c5ncccc45)nc(N)c32)cc1)C(=O)O` (stereo not drawn) [Example 17AB, 3-(4-{4-amino-5-methyl-6-oxo-2-[1-(4,4,4-trifluorobutyl)-1H-pyrazolo[3,4-b]pyridin-3-yl]-6,7-dihydro-5H-pyrrolo[2,3-d]pyrimidin-5-yl}phenyl)-2-methylpropanoic acid], for which, in experiment [1], the Ki was found to be 0.936 nM. At sGC α1/β1 heterodimer, the Emax amounted to 77% and the EC50 was 3780 nM.
The corresponding values for `CC(C)(Cc1coc(C2(C)C(=O)Nc3nc(-c4nn(Cc5cccc(F)c5F)c5cc(Cl)ccc45)nc(N)c32)n1)C(=O)O` (stereo not drawn) [Example 180A, 3-(2-{4-amino-2-[6-chloro-1-(2,3-difluorobenzyl)-1H-indazol-3-yl]-5-methyl-6-oxo-6,7-dihydro-5H-pyrrolo[2,3-d]pyrimidin-5-yl}-1,3-oxazol-4-yl)-2,2-dimethyl-propanoic acid] are 0.031 nM, 121% and 228 nM.
On to `CC1(c2ccc(CCc3nn[nH]n3)cn2)C(=O)Nc2nc(-c3nn(Cc4ccccc4F)c4cc(Cl)ccc34)nc(N)c21` (single isomer, unassigned) [Example 247A, 5-{5-[2-(2H-tetrazol-5-yl)ethyl]pyridin-2-yl}-4-amino-2-[6-chloro-1-(2-fluorobenzyl)-1H-indazol-3-yl]-5-methyl-5,7-dihydro-6H-pyrrolo[2,3-d] pyrimidin-6-one], for which, in experiment [1], the inhibition constant Ki was 0.242 nM. In addition, the EC50 at sGC α1/β1 heterodimer stood at 4020 nM.
For `CC(C)(NC(=O)CCc1ccc([C@]2(C)C(=O)Nc3nc(-c4nn(Cc5ccccc5F)c5ncccc45)nc(N)c32)cc1)C(=O)O` [Example 101B, (S)-2-(3-(4-{4-amino-2-[1-(2-fluorobenzyl)-1H-pyrazolo[3,4-b]pyridin-3-yl]-5-methyl-6-oxo-6,7-dihydro-5H-pyrrolo[2,3-d]pyrimidin-5-yl}phenyl)propanamido)-2-methylpropanoic acid], the Ki in experiment [1] was found to be 0.026 nM. Besides, on sGC α1/β1 heterodimer, the Emax was found to be 111% and the EC50 stood at 2340 nM.
In the same order, the values of `C[C@@]1(c2ccc(CCc3nn[nH]n3)cc2)C(=O)Nc2nc(-c3nn(CCC(F)(F)C(F)(F)F)c4cc(Cl)ccc34)nc(N)c21` (single isomer, unassigned) [Example 237B] are 0.193 nM, 93.3% and 5870 nM.
Turning to `Cc1cccc(Cn2nc(-c3nc(N)c4c(n3)NC(=O)C4(C)c3nc(CC(C)(C)C(=O)O)co3)c3ccc(Cl)cc32)c1` (stereo not drawn) [Example 186A, 3-(2-{4-amino-2-[6-chloro-1-(3-methylbenzyl)-1H-indazol-3-yl]-5-methyl-6-oxo-6,7-dihydro-5H-pyrrolo[2,3-d]pyrimidin-5-yl}-1,3-oxazol-4-yl)-2,2-dimethyl-propanoic acid], the Ki in experiment [1] was 0.12 nM. Moreover, at sGC α1/β1 heterodimer, the Emax was 83.3% and the EC50 is 205 nM.
The corresponding values for `CC(C)(Cc1csc([C@]2(C)C(=O)Nc3nc(-c4nn(CCCC(F)(F)F)c5ncccc45)nc(N)c32)n1)C(=O)O` [Example 87B, (S)-3-(2-{4-amino-5-methyl-6-oxo-2-[1-(4,4,4-trifluorobutyl)-1H-pyrazolo[3,4-b]pyridin-3-yl]-6,7-dihydro-5H-pyrrolo[2,3-d]pyrimidin-5-yl}-1,3-thiazol-4-yl)-2,2-dimethylpropanoic acid] are 0.785 nM, 97% and 547 nM.
`CC(C)(Cc1nc(C2(C)C(=O)Nc3nc(-c4nn(Cc5ccccc5F)c5cc(Cl)ccc45)nc(N)c32)cs1)C(=O)O` (stereo not drawn) [Example 142B, 3-(4-{4-amino-2-[6-chloro-1-(2-fluoro-benzyl)-1H-indazol-3-yl]-5-methyl-6-oxo-6,7-dihydro-5H-pyrrolo[2,3-d]pyrimidin-5-yl}-1,3-thiazol-2-yl)-2,2-dimethyl-propanoic acid]: the inhibition constant (Ki) in experiment [1] turned out to be 0.183 nM. For the same molecule, at sGC α1/β1 heterodimer, the Emax amounted to 109% and the EC50 was found to be 264 nM.
Regarding `CCCCn1nc(-c2nc(N)c3c(n2)NC(=O)[C@@]3(C)c2ccc(CCC(=O)O)cc2)c2ccc(C)nc21` [Example 111B, (S)-3-{4-{4-amino-2-(1-butyl-6-methyl-1H-pyrazolo[3,4-b]pyridin-3-yl)-5-methyl-6-oxo-6,7-dihydro-5H-pyrrolo[2,3-d]pyrimidin-5-yl}phenyl}propanoic acid], the Ki in experiment [1] was found to be 1.11 nM. On sGC α1/β1 heterodimer, the Emax was determined as 86% and the EC50 stood at 9250 nM.
Take `CCCCn1nc(-c2nc(N)c3c(n2)NC(=O)C3(C)c2ccc(CC(C)(C)C(=O)O)cc2)c2ccc(Cl)cc21` (stereo not drawn) [Example 37B, 3-{4-[4-amino-2-(1-butyl-6-chloro-1H-indazol-3-yl)-5-methyl-6-oxo-6,7-dihydro-5H-pyrrolo[2,3-d]pyrimidin-5-yl]phenyl}-2,2-dimethylpropanoic acid]: the Ki in experiment [1] is 0.484 nM. Also, on sGC α1/β1 heterodimer, the Emax is 96% and the EC50 came out at 762 nM.
In the same order, the values of `CC1CCC(Cn2nc(-c3nc(N)c4c(n3)NC(=O)C4(C)c3nc(CC(C)(C)C(=O)O)co3)c3ccc(Cl)cc32)CC1` (single isomer, unassigned) [Example 132AA, 3-{2-[4-amino-2-{6-chloro-1-[4-methylcyclohexylmethyl]-1H-indazol-3-yl}-5-methyl-6-oxo-6,7-dihydro-5H-pyrrolo[2,3-d]pyrimidin-5-yl]-1,3-oxazol-4-yl}-2,2-dimethylpropanoic acid] are 0.105 nM, 109% and 125 nM.
In the case of `CC1CCC(Cn2nc(-c3nc(N)c4c(n3)NC(=O)[C@@]4(C)c3ccc(CCC(=O)O)cc3)c3ccc(Cl)cc32)CC1` (single isomer, unassigned) [Example 5BB], the Ki in experiment [1] amounted to 0.182 nM. Further, at sGC α1/β1 heterodimer (activity expressed as percentage of compound A (standard)), the “% Activation” value came out at 107%. Further, the EC50 at sGC α1/β1 heterodimer worked out at 330 nM.
Consider `CC(C)(Cc1csc([C@]2(C)C(=O)Nc3nc(-c4nn(Cc5c(F)ccc(F)c5F)c5ccccc45)nc(N)c32)n1)C(=O)O` [Example 224A, (S)-3-(2-{4-amino-5-methyl-6-oxo-2-[1-(2,3,6-trifluorobenzyl)-1H-indazol-3-yl]-6,7-dihydro-5H-pyrrolo[2,3-d]pyrimidin-5-yl}-1,3-thiazol-4-yl)-2,2-dimethyl-propanoic acid], for which, in experiment [1], the Ki came to 0.067 nM. Also, at sGC α1/β1 heterodimer, the Emax is 111% and the EC50 was determined as 14 nM.
Regarding `CC(C)(Cc1coc(C2(C)C(=O)Nc3nc(-c4nn(CC5CCCCO5)c5ccccc45)nc(N)c32)n1)C(=O)O` (single isomer, unassigned) [Example 230AA, 3-{2-[4-amino-5-methyl-6-oxo-2-{1-[tetrahydro-2H-pyran-2-ylmethyl]-1H-indazol-3-yl}-6,7-dihydro-5H-pyrrolo[2,3-d]pyrimidin-5-yl]-1,3-oxazol-4-yl}-2,2-dimethyl-propanoic acid], in experiment [1], the Ki is 0.185 nM. Further, the EC50 on sGC α1/β1 heterodimer was determined as 821 nM.
